Earlier results on four compounds are cited in patent publication US20100003322A1, “ENTERIC COATED HYDROPHOBIC MATRIX FORMULATION” (priority 2008, published 2010).

Structures can show the parent of a compound that is named as a salt.

The conditions of the data set: for water solubility: volume of water that dissolves 1 g: 1 g of drug in the stated ml of water; for solubility as described in the package insert: water, for gabapentin also basic and acidic aqueous solutions.

Take `CCCC(CCC)C(=O)[O-].[Na+]` [sodium valproate, sodium 2-propylpentanoate]: the “water solubility: volume of water that dissolves 1 g” value is 0.4 mL.

Regarding `CC[C@@H](C(N)=O)N1CCCC1=O` [levetiracetam, (−)-(S)-α-ethyl-2-oxo-1-pyrrolidine acetamide], the “solubility as described in the package insert” value was “very soluble”. Also, for the setting “in 100 ml of water”, the “water solubility: amount dissolved in 100 ml of water” value was “approximately 104 grams”. With `NCC1(CC(=O)O)CCCCC1` [gabapentin, 1-(aminomethyl)cyclohexaneacetic acid], the “solubility as described in the package insert” value was “freely soluble”. Turning to `COc1cccc(C2(O)CCCCC2CN(C)C)c1` (centres unmarked) [tramadol hydrochloride], the “water solubility: volume of water that dissolves 1 g” value was approximately 33 mL.
